How the values were obtained:
[1] = test system: M. hyosynoviae ATCC 25591; assay: MIC, anti-mycoplasmal, Friis broth solidified with 0.9% agarose; type: cell-based; conditions: inoculum 10^3 to 10^5 C.F.U., 6 days incubation at 37°C
[2] = test system: Staph aureus B4 (pen resis); assay: MIC, veterinary bacteria; type: cell-based; conditions: veterinary bacteria (Table 2)
[3] = test system: Neisseria catarrhalis 1502; assay: MIC, human bacteria, serial dilution in nutrient agar; type: cell-based; conditions: Neisseria catarrhalis 1502 (footnote a); nutrient agar containing 5% 'chocolated' horse blood
Staph aureus Oxford [4] = assay: as above; type: cell-based; conditions: nutrient agar containing 5% 'chocolated' horse blood
Staph aureus Russell = assay: as above; type: cell-based; conditions: nutrient agar containing 5% 'chocolated' horse blood
S typhimurium S18 = assay: MIC, veterinary bacteria; type: cell-based; conditions: veterinary bacteria (Table 2)
M. suipneumoniae MS 16 = assay: MIC, anti-mycoplasmal, Friis broth solidified with 0.9% agarose; type: cell-based; conditions: inoculum 10^3 to 10^5 C.F.U., 6 days incubation at 37°C
Strep pyogenes A 64/848 = assay: MIC, human bacteria, serial dilution in nutrient agar; type: cell-based; conditions: nutrient agar containing 5% 'chocolated' horse blood
[5] = test system: Erysipelothrix rhusiopathiae NCTC 8163; assay: MIC, veterinary bacteria; type: cell-based; conditions: veterinary bacteria (Table 2)
M. hyorhinis ATCC 23234 = assay: MIC, anti-mycoplasmal, Friis broth solidified with 0.9% agarose; type: cell-based; conditions: inoculum 10^3 to 10^5 C.F.U., 6 days incubation at 37°C
Bord bronchiseptica BO8 = assay: MIC, veterinary bacteria; type: cell-based; conditions: veterinary bacteria (Table 2)
M. suipneumoniae JF 435 = assay: MIC, anti-mycoplasmal, Friis broth solidified with 0.9% agarose; type: cell-based; conditions: inoculum 10^3 to 10^5 C.F.U., 6 days incubation at 37°C
M. dispar NCTC 10125 = assay: as above; type: cell-based; conditions: inoculum 10^3 to 10^5 C.F.U., 6 days incubation at 37°C
K aerogenes A = assay: MIC, human bacteria, serial dilution in nutrient agar; type: cell-based; conditions: nutrient agar containing 5% 'chocolated' horse blood
[6] = test system: M. bovigenitalium ATCC 14173; assay: MIC, anti-mycoplasmal, Friis broth solidified with 0.9% agarose; type: cell-based; conditions: inoculum 10^3 to 10^5 C.F.U., 6 days incubation at 37°C
Staph aureus Oxford [7] = assay: MIC, veterinary bacteria; type: cell-based; conditions: veterinary bacteria (Table 2)
E coli E1 = assay: MIC, veterinary bacteria; type: cell-based; conditions: veterinary bacteria (Table 2)
Ps aeruginosa 10662 = assay: MIC, human bacteria, serial dilution in nutrient agar; type: cell-based; conditions: nutrient agar containing 5% 'chocolated' horse blood
[8] = test system: Pasteurella multocida 1633; assay: as above; type: cell-based; conditions: nutrient agar containing 5% 'chocolated' horse blood
Past Haemolytica PA5 = assay: MIC, veterinary bacteria; type: cell-based; conditions: veterinary bacteria (Table 2)
E coli NCTC 10418 [9] = assay: MIC, veterinary bacteria; type: cell-based; conditions: veterinary bacteria (Table 2)
M. gallisepticum S6 = assay: MIC, anti-mycoplasmal, Friis broth solidified with 0.9% agarose; type: cell-based; conditions: inoculum 10^3 to 10^5 C.F.U., 6 days incubation at 37°C
E coli ESS = assay: MIC, human bacteria, serial dilution in nutrient agar; type: cell-based; conditions: nutrient agar containing 5% 'chocolated' horse blood
Past multocida PA2 = assay: MIC, veterinary bacteria; type: cell-based; conditions: veterinary bacteria (Table 2)
M. hyorhinis ATCC 25021 = assay: MIC, anti-mycoplasmal, Friis broth solidified with 0.9% agarose; type: cell-based; conditions: inoculum 10^3 to 10^5 C.F.U., 6 days incubation at 37°C
M. suipneumoniae Str. 11 = assay: as above; type: cell-based; conditions: inoculum 10^3 to 10^5 C.F.U., 6 days incubation at 37°C
Strep agalactiae SPA1 = assay: MIC, veterinary bacteria; type: cell-based; conditions: veterinary bacteria (Table 2)
Strep pyogenes B 2788 = assay: MIC, human bacteria, serial dilution in nutrient agar; type: cell-based; conditions: nutrient agar containing 5% 'chocolated' horse blood
[10] = test system: M. suipneumoniae J2206/183b; assay: MIC, anti-mycoplasmal, Friis broth solidified with 0.9% agarose; type: cell-based; conditions: inoculum 10^3 to 10^5 C.F.U., 6 days incubation at 37°C
[11] = test system: Corynebacterium pyogenes CY1; assay: MIC, veterinary bacteria; type: cell-based; conditions: veterinary bacteria (Table 2)
Bacillus subtilis 6633 = assay: MIC, human bacteria, serial dilution in nutrient agar; type: cell-based; conditions: nutrient agar containing 5% 'chocolated' horse blood
M. suipneumoniae LABER = assay: MIC, anti-mycoplasmal, Friis broth solidified with 0.9% agarose; type: cell-based; conditions: inoculum 10^3 to 10^5 C.F.U., 6 days incubation at 37°C
M. suipneumoniae HK(2) = assay: as above; type: cell-based; conditions: inoculum 10^3 to 10^5 C.F.U., 6 days incubation at 37°C
Strep faecalis I = assay: MIC, human bacteria, serial dilution in nutrient agar; type: cell-based; conditions: nutrient agar containing 5% 'chocolated' horse blood
M. suipneumoniae NB12 = assay: MIC, anti-mycoplasmal, Friis broth solidified with 0.9% agarose; type: cell-based; conditions: inoculum 10^3 to 10^5 C.F.U., 6 days incubation at 37°C
M. pneumoniae ATCC 15492 = assay: as above; type: cell-based; conditions: inoculum 10^3 to 10^5 C.F.U., 6 days incubation at 37°C
[12] = test system: M. suipneumoniae ATCC 25095; assay: as above; type: cell-based; conditions: inoculum 10^3 to 10^5 C.F.U., 6 days incubation at 37°C
Staph aureus W2827 = assay: MIC, human bacteria, serial dilution in nutrient agar; type: cell-based; conditions: nutrient agar containing 5% 'chocolated' horse blood
[13] = test system: Strep suis (group D) SPS11; assay: MIC, veterinary bacteria; type: cell-based; conditions: veterinary bacteria (Table 2)
P mirabilis 889 = assay: MIC, human bacteria, serial dilution in nutrient agar; type: cell-based; conditions: nutrient agar containing 5% 'chocolated' horse blood
Strep pyogenes C 2761 = assay: as above; type: cell-based; conditions: nutrient agar containing 5% 'chocolated' horse blood
[14] = test system: Haemophilus influenzae Wy21; assay: as above; type: cell-based; conditions: nutrient agar containing 5% 'chocolated' horse blood
[15] = test system: M. suipneumoniae NCTC 10110; assay: MIC, anti-mycoplasmal, Friis broth solidified with 0.9% agarose; type: cell-based; conditions: inoculum 10^3 to 10^5 C.F.U., 6 days incubation at 37°C
[16] = test system: Corynebacterium zerosis 9755; assay: MIC, human bacteria, serial dilution in nutrient agar; type: cell-based; conditions: nutrient agar containing 5% 'chocolated' horse blood
Sercina lutea 8340 = assay: as above; type: cell-based; conditions: nutrient agar containing 5% 'chocolated' horse blood
S dublin S7 = assay: MIC, veterinary bacteria; type: cell-based; conditions: veterinary bacteria (Table 2)
Past multocida PA1 = assay: MIC, veterinary bacteria; type: cell-based; conditions: veterinary bacteria (Table 2)
E coli NCTC 10418 [17] = assay: MIC, human bacteria, serial dilution in nutrient agar; type: cell-based; conditions: nutrient agar containing 5% 'chocolated' horse blood
[18] = test system: M. suipneumoniae PW/C/210; assay: MIC, anti-mycoplasmal, Friis broth solidified with 0.9% agarose; type: cell-based; conditions: inoculum 10^3 to 10^5 C.F.U., 6 days incubation at 37°C
M. suipneumoniae UCD 1 = assay: as above; type: cell-based; conditions: inoculum 10^3 to 10^5 C.F.U., 6 days incubation at 37°C
pig serum = assay: Serum binding by ultrafiltration; type: in vitro ADME; conditions: compounds at 8 mcg/ml, microbiological assay (B. subtilis ATCC 6633)
Procedure: Serum binding was assessed by ultrafiltration of procine serum containing compounds at 8 mcg/ml, and through an Amicon CF50A ultrafiltration cone. Separation of ultrafiltrate was achieved by centrifugation.

[19] = test system: Staph aureus 152 (pen sens); assay: MIC, veterinary bacteria; type: cell-based; conditions: veterinary bacteria (Table 2)
M. bovis NCTC 10131 = assay: microbe, parasite or virus in culture; type: cell-based; conditions: M. bovis NCTC 10131; inoculum 10^3 to 10^5 C.F.U., 6 days incubation at 37°C
M. suipneumoniae TAM 6N = assay: MIC, anti-mycoplasmal, Friis broth solidified with 0.9% agarose; type: cell-based; conditions: inoculum 10^3 to 10^5 C.F.U., 6 days incubation at 37°C
Strep dysgalaciae SPD1 = assay: MIC, veterinary bacteria; type: cell-based; conditions: veterinary bacteria (Table 2)
Bord bronchisptica BO9 = assay: MIC, veterinary bacteria; type: cell-based; conditions: veterinary bacteria (Table 2)
Strep uberis SPU1 = assay: MIC, veterinary bacteria; type: cell-based; conditions: veterinary bacteria (Table 2)

C^yclopentan-2-onyl monate A [Example 6]
in vitro MIC [1]: 2.5 µg/mL | MIC [2]: 2.5 µg/mL | MIC [3]: ^a1.0 µm/ml | MIC (Staph aureus Oxford [4]): 2.5 µm/ml | MIC (Staph aureus Russell): 5.0 µm/ml | MIC (S typhimurium S18): >80 µg/mL | in vitro MIC (M. suipneumoniae MS 16): 2.5 µg/mL | MIC (Strep pyogenes A 64/848): 2.5 µm/ml | MIC [5]: >80 µg/mL | in vitro MIC (M. hyorhinis ATCC 23234): 2.5 µg/mL | MIC (Bord bronchiseptica BO8): 80 µg/mL | in vitro MIC (M. suipneumoniae JF 435): 10 µg/mL | in vitro MIC (M. dispar NCTC 10125): 0.5 µg/mL | MIC (K aerogenes A): >100 µm/ml | in vitro MIC [6]: 0.25 µg/mL | MIC (Staph aureus Oxford [7]): 2.5 µg/mL | MIC (E coli E1): >80 µg/mL | MIC (Ps aeruginosa 10662): >100 µm/ml | MIC [8]: 1.0 µm/ml | MIC (Past Haemolytica PA5): 5 µg/mL | MIC (E coli NCTC 10418 [9]): >80 µg/mL | in vitro MIC (M. gallisepticum S6): >10 µg/mL | MIC (E coli ESS): 2.5 µm/ml | MIC (Past multocida PA2): .312 µg/mL | in vitro MIC (M. hyorhinis ATCC 25021): 2.5 µg/mL | in vitro MIC (M. suipneumoniae Str. 11): 2.5 µg/mL | MIC (Strep agalactiae SPA1): 2.5 µg/mL | MIC (Strep pyogenes B 2788): 5.0 µm/ml | in vitro MIC [10]: 10 µg/mL | MIC [11]: >80 µg/mL | MIC (Bacillus subtilis 6633): 2.5 µm/ml | in vitro MIC (M. suipneumoniae LABER): 2.5 µg/mL | in vitro MIC (M. suipneumoniae HK(2)): 10 µg/mL | MIC (Strep faecalis I): >100 µm/ml | in vitro MIC (M. suipneumoniae NB12): 2.5 µg/mL | in vitro MIC (M. pneumoniae ATCC 15492): 10 µg/mL | in vitro MIC [12]: 5.0 µg/mL | MIC (Staph aureus W2827): 5.0 µm/ml | MIC [13]: 20 µg/mL | MIC (P mirabilis 889): 100 µm/ml | MIC (Strep pyogenes C 2761): 5.0 µm/ml | MIC [14]: 0.5 µm/ml | in vitro MIC [15]: 10 µg/mL | MIC [16]: >100 µm/ml | MIC (Sercina lutea 8340): >100 µm/ml | MIC (S dublin S7): >80 µg/mL | MIC (Past multocida PA1): .625 µg/mL | MIC (E coli NCTC 10418 [17]): >100 µm/ml | in vitro MIC [18]: 2.5 µg/mL | in vitro MIC (M. suipneumoniae UCD 1): 10 µg/mL | % bound to pig serum (pig serum): 35.6% | MIC [19]: 2.5 µg/mL | in vitro MIC (M. bovis NCTC 10131): 0.25 µg/mL | in vitro MIC (M. suipneumoniae TAM 6N): 5.0 µg/mL | MIC (Strep dysgalaciae SPD1): 1.25 µg/mL | MIC (Bord bronchisptica BO9): 20 µg/mL | MIC (Strep uberis SPU1): 1.25 µg/mL

Source: patent publication EP0025288A1, “Derivatives of monic acid, processes for their preparation, compositions containing them and their preparation” (priority 1979, dated 1981)
